Experiments:
[1] = tested on: Eotaxin-3 (CCL26) release in human whole blood stimulated with IL-4; experiment: Human whole blood eotaxin-3 assay (IL-4 stimulated, Eotaxin-3 release); type: cell-based; conditions: for Emax: 48 h
Outline: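 Lithium-heparin blood preincubated 2 h at 37° C with 4-fold compound dilutions (0.5% DMSO, triplicates), then stimulated with 400 pM recombinant human IL-4 for 48 h. Eotaxin-3 in plasma supernatant measured by MSD immunoassay.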

human STAT6 = human STAT6 (Homo sapiens (Human), UniProt P42226); experiment: Surface plasmon resonance assay (Biacore 8K, binding to immobilized STAT6); conditions: human STAT6 aa122-658, N-terminal His-tag, CM5 chip, 25° C.; geometric mean; read-out: STAT6 SPR Kd
Chain of human STAT6 (P42226 122-658): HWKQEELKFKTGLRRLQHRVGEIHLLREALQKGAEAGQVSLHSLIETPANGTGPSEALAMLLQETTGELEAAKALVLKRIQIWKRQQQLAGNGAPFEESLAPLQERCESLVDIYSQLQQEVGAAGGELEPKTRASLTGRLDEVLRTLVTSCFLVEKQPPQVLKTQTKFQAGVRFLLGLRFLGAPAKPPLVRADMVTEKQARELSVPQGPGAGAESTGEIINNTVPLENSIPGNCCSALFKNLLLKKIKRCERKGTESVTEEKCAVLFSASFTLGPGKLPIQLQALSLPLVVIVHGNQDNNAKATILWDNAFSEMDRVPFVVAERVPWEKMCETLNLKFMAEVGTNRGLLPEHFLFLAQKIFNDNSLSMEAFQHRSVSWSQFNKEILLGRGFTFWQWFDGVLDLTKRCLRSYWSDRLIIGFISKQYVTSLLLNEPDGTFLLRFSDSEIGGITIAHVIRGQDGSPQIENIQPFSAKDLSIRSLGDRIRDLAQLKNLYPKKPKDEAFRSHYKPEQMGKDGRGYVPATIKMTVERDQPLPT
Outline: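 Run at 25° C with His-tagged STAT6 aa122-658 (insect-cell expressed) amine-coupled to a CM5 chip, reference-subtracted, in PBS-P+ with 2% DMSO. Multi-cycle kinetics: 60 sec. contact, up to 300 sec. dissociation. Affinity fitted from late report-point binding isotherms, with Rmax both free and fixed to theoretical 1:1.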

Row | Compound | EC50 ([1]; Homo sapiens, Hec50, 48 h) | Kd (human STAT6) | EC50 ([1]; human whole blood, 400 pM recombinant human IL-4, 48 h, EC50 provided for compounds with >80% Emax, geometric mean) | Emax ([1]; Homo sapiens)
1 | Cc1cc(C(=O)N(C)C)ccc1C1=CCN([C@@H](C)c2cc3c(-c4ccc(N)nc4C#N)ccnc3n2C)CC1 [Example 1af44, (S)-4-(1-(1-(4-(6-Amino-2-cyanopyridin-3-yl)-1-methyl-1H-pyrrolo[2,3-b]-pyridin-2-yl)ethyl)-1,2,3,6-tetrahydropyridin-4-yl)-N,N,3-trimethylbenzamide] | 15900 nM | 352 nM |  | 
2 | CN(C)C(=O)c1ccc(C2CCN(Cc3cc4c(-c5cnc(N)nc5)ccnc4n3C)CC2)cc1 [Example 1k13, 4-[1-[[4-(2-Aminopyrimidin-5-yl)-1-methyl-pyrrolo[2,3-b]pyridin-2-yl]methyl]-4-piperidyl]-N,N-dimethyl-benzamide] | 14200 nM | 87.7 nM |  | 
3 | CNc1cc(C)c(-c2ccnc3c2cc(CN2CCC(c4ccc(C(=O)N(C)C)cc4)CC2)n3C)cn1 [Example 1k51, N,N-Dimethyl-4-[1-[[1-methyl-4-[4-methyl-6-(methylamino)-3-pyridyl]pyrrolo[2,3-b]pyridin-2-yl]methyl]-4-piperidyl]benzamide] |  | 80.5 nM |  | 43%
4 | Cc1cc(C(=O)N(C)C)ccc1C1=CCN([C@H](C)c2cc3c(-c4ccc(N)nc4C#N)ccnc3n2C)CC1 [Example 1af45, (R)-4-(1-(1-(4-(6-amino-2-cyanopyridin-3-yl)-1-methyl-1H-pyrrolo[2,3-b]pyridin-2-yl)ethyl)-1,2,3,6-tetrahydropyridin-4-yl)-N,N,3-trimethylbenzamide] | 41 nM | 21.6 nM |  | 
5 | N,N-Dimethyl-4-[1-[[1-methyl-4-[6-(methylamino)-3-pyridyl]pyrrolo[2,3-b]pyridin-2-yl]methyl]-4-piperidyl]benzamide [Example 1k37] |  | 16 nM | 7160 nM | 
6 | [2H]C([2H])([2H])N(C(=O)c1ccc(C2CCN([C@H](C)c3cc4c(-c5ccc(N)cn5)ccnc4n3C)CC2)cc1)C([2H])([2H])[2H] [Example 1af36, (R)-4-(1-(1-(4-(5-aminopyridin-2-yl)-1-methyl-1H-pyrrolo[2,3-b]pyridin-2-yl)ethyl)piperidin-4-yl)-N,N-bis(methyl-d3)benzamide] | 404 nM | 15.7 nM |  | 
7 | CNc1ccc(-c2ccnc3c2cc([C@H](C)N2CCC(c4ccc(C(=O)N(C)C)cc4)CC2)n3C)c(C#N)n1 [Example 1af39, (S)-4-(1-(1-(4-(2-xyano-6-(methylamino)pyridin-3-yl)-1-methyl-1H-pyrrolo-[2,3-b]pyridin-2-yl)ethyl)piperidin-4-yl)-N,N-dimethylbenzamide] | 115 nM | 32.7 nM |  | 
8 | CN(C)C(=O)c1ccc(C2CCN(Cc3cc4c(-c5ccc(N)nc5C#N)ccnc4n3C)CC2)cc1 [Example 1k43, 4-[1-[[4-(6-Amino-2-cyano-3-pyridyl)-1-methyl-pyrrolo[2,3-b]pyridin-2-yl]methyl]-4-piperidyl]-N,N-dimethyl-benzamide] | 871 nM | 31.4 nM |  | 
9 | C[C@H](c1cc2c(-c3ccc(N)cn3)ccnc2n1C)N1CC=C(c2ccc(C(=O)N(C)C)cc2)CC1 [Example 1af20, (R)-4-(1-(1-(4-(5-aminopyridin-2-yl)-1-methyl-1H-pyrrolo[2,3-b]pyridin-2-yl)ethyl)-1,2,3,6-tetrahydropyridin-4-yl)-N,N-dimethylbenzamide] |  | 40.4 nM |  | 76.7%
10 | C[C@H](c1cc2c(-c3ccc(N)nc3)ccnc2n1C)N1CCC(c2ccc(C(=O)N(C)C)cc2)CC1 [Example 1af12, (R)-4-(1-(1-(4-(6-aminopyridin-3-yl)-1-methyl-1H-pyrrolo[2,3-b]pyridin-2-yl)ethyl)piperidin-4-yl)-N,N-dimethylbenzamide] | 246 nM | 12.9 nM |  | 
11 | CNc1ccc(-c2ccnc3c2cc([C@H](C)N2CCC(c4ccc(C(=O)N(C)C)cc4)CC2)n3C)nc1 [Example 1o24, (S)—N,N-dimethyl-4-(1-(1-(1-methyl-4-(5-(methylamino)pyridin-2-yl)-1H-pyrrolo[2,3-b]pyridin-2-yl)ethyl)piperidin-4-yl)benzamide] | 444 nM | 31.2 nM |  | 
12 | [2H]C([2H])([2H])N(C(=O)c1ccc(C2=CCN([C@H](C)c3cc4c(-c5ccc(N)nc5C#N)ccnc4n3C)CC2)c(C)c1)C([2H])([2H])[2H] [Example 1af26, (R)-4-(1-(1-(4-(6-amino-2-cyanopyridin-3-yl)-1-methyl-1H-pyrrolo[2,3-b]pyridin-2-yl)ethyl)-1,2,3,6-tetrahydropyridin-4-yl)-3-methyl-N,N-bis(methyl-d3)benzamide] | 65.4 nM | 20 nM |  | 
13 | [2H]C([2H])([2H])N(C(=O)c1ccc(C2CCN([C@@H](C)c3cc4c(-c5ccc(N)nc5C#N)ccnc4n3C)CC2)c(C)c1)C([2H])([2H])[2H] [Example 1af37, (S)-4-(1-(1-(4-(6-Amino-2-cyanopyridin-3-yl)-1-methyl-1H-pyrrolo[2,3-b]pyridin-2-yl)ethyl)piperidin-4-yl)-3-methyl-N,N-bis(methyl-d3)benzamide] | 699 nM | 57.7 nM |  | 
14 | CNc1ccc(-c2ccnc3c2cc(CN2CCC(c4ccc(C(=O)N(C)C)cc4)CC2)n3C)nn1 [Example 1k71, N,N-Dimethyl-4-[1-[[1-methyl-4-[6-(methylamino)pyridazin-3-yl]pyrrolo[2,3-b]pyridin-2-yl]methyl]-4-piperidyl]benzamide] |  | 22.6 nM |  | 78.8%
15 | CN(C)C(=O)c1ccc(C2CCN(Cc3cc4c(-c5ccc(N)nc5)ccnc4n3C)CC2)cc1 [Example 1k3, 4-[1-[[4-(6-Amino-3-pyridyl)-1-methyl-pyrrolo[2,3-b]pyridin-2-yl]methyl]-4-piperidyl]-N,N-dimethyl-benzamide] | 6000 nM | 11.4 nM |  | 

Further lines, with some results ahead:

Row | EC50 ([1]; Homo sapiens, Hec50, 48 h) | Kd (human STAT6) | EC50 ([1]; human whole blood, 400 pM recombinant human IL-4, 48 h, EC50 provided for compounds with >80% Emax, geometric mean) | Compound | Emax ([1]; Homo sapiens)
16 | 480 nM | 28.8 nM |  | CNc1ccc(-c2ccnc3c2cc(CN2CCC(c4c(C)cc(C(=O)N(C)C)cc4C)CC2)n3C)cn1 [Example 1s13, N,N,3,5-Tetramethyl-4-[1-[[1-methyl-4-[6-(methylamino)-3-pyridyl]pyrrolo[2,3-b]pyridin-2-yl]methyl]-4-piperidyl]benzamide] | 
17 | 4960 nM | 32.1 nM |  | CNc1ccc(-c2ccnc3c2cc(CN2CC=C(c4ncc(C(=O)N(C)C)cc4C)CC2)n3C)cn1 [Example 1s12, N,N,5-Trimethyl-6-[1-[[1-methyl-4-[6-(methylamino)-3-pyridyl]pyrrolo[2,3-b]pyridin-2-yl]methyl]-3,6-dihydro-2H-pyridin-4-yl]pyridine-3-carboxamide] | 
18 | 138 nM | 18.4 nM |  | C[C@@H]1C[C@H](c2ccc(C(=O)N(C)C)cc2)CCN1Cc1cc2c(-c3ccc(N)nc3C#N)ccnc2n1C (single isomer, unassigned) [Example 1q4] | 
19 | 232 nM | 19.2 nM |  | CNc1ccc(-c2ccnc3c2cc(CN2CCN(c4ccc(C(=O)N(C)C)cc4C)CC2)n3C)nn1 [Example 1p3, N,N,3-Trimethyl-4-[4-[[1-methyl-4-[6-(methylamino)pyridazin-3-yl]pyrrolo[2,3-b]pyridin-2-yl]methyl]piperazin-1-yl]benzamide] | 
20 | 958 nM | 33.8 nM |  | CNc1ccc(-c2ccnc3c2cc(CN2CC=C(c4ccc(C(=O)N(C)C)cc4C)CC2)n3C)cn1 [Example 1s8, N,N,3-Trimethyl-4-[1-[[1-methyl-4-[6-(methylamino)-3-pyridyl]pyrrolo[2,3-b]pyridin-2-yl]methyl]-3,6-dihydro-2H-pyridin-4-yl]benzamide] | 
21 | 370 nM | 18.1 nM |  | C[C@@H]1C[C@H](c2ccc(C(=O)N(C)C)cc2)CCN1Cc1cc2c(-c3ccc(N)cn3)ccnc2n1C (single isomer, unassigned) [Example 1q1] | 
22 | 3080 nM | 47.4 nM |  | C[C@H]1C[C@@H](c2ccc(C(=O)N(C)C)cc2)CCN1Cc1cc2c(-c3ccc(N)cn3)ccnc2n1C (single isomer, unassigned) [Example 1q6] | 
23 |  | 39.9 nM |  | CC(=O)Nc1ccc(-c2ccnc3c2cc(CN2CC[C@@H](c4ccc(C(=O)N(C)C)cc4)[C@@H](F)C2)n3C)cc1 [Example 1r6, N,N-dimethyl-4-[(3R,4S)-1-[[4-(4-acetamidophenyl)-1-methyl-pyrrolo[2,3-b]pyridin-2-yl]methyl]-3-fluoro-4-piperidyl]benzamide] | 51.2%
24 | 76000 nM | 329 nM |  | CNc1ccc(-c2ccnc3c2cc(CN2CCN(c4ccc(C(=O)N(C)C)cc4)CC2)n3C)nn1 [Example 1p1, N,N-Dimethyl-4-[4-[[1-methyl-4-[6-(methylamino)pyridazin-3-yl]pyrrolo[2,3-b]pyridin-2-yl]methyl]piperazin-1-yl]benzamide] | 
25 | 205 nM | 40.4 nM |  | CNc1ccc(-c2ccnc3c2cc(CN2CC=C(c4c(C)cc(C(=O)N(C)C)cc4C)CC2)n3C)cn1 [Example 1s10, N,N,3,5-Tetramethyl-4-[1-[[1-methyl-4-[6-(methylamino)-3-pyridyl]pyrrolo[2,3-b]pyridin-2-yl]methyl]-3,6-dihydro-2H-pyridin-4-yl]benzamide] | 
26 | 651 nM | 57.4 nM |  | C[C@H]1C[C@@H](c2ccc(C(=O)N(C)C)cc2)CCN1Cc1cc2c(-c3ccc(N)nc3C#N)ccnc2n1C (single isomer, unassigned) [Example 1q5] | 
27 | 14100 nM | 70.1 nM |  | CNc1ccc(-c2ccnc3c2cc(CN2CCC(c4ccc(C(=O)N(C)C)cc4C)CC2)n3C)nn1 [Example 1p2, N,N,3-Trimethyl-4-[1-[[1-methyl-4-[6-(methylamino)pyridazin-3-yl]pyrrolo[2,3-b]pyridin-2-yl]methyl]-4-piperidyl]benzamide] | 

Source: patent US20250340551A1, “SMALL MOLECULE MODULATORS OF STAT6” (Gilead Sciences, Inc., priority 2024, published 2025)
